In patent publication US12006330B2, “Substituted macrocyclic compounds and related methods of treatment” (Alkermes, Inc., priority 2020, dated 2024):

How the values were obtained:
Type in all cases: in vitro ADME
[1] = test system: MDR1; test: MDCK-MDR1 permeability assay; details: dog, MDCK-MDR1, MDCK-MDR1 cells; for efflux ratio at 2 h, 3 μM: Papp B→A divided by Papp A→B, read-out: Efflux ratio (ER); for Papp A→B at 2 h, 3 μM: test compound 3 μM, 2 hours at 37 degrees C, apical to basolateral
Procedure: The bidirectional permeability (Apical to Basal and Basal to Apical directions) of test compounds in MDCK-MIDR1 cells were evaluated using MDCK-MIDR1 cells seeded in Solvo PreadyPort™ MDCK 96-well plate. Once the plate was received from ReadyCell (Barcelona, Spain), it was treated as per PreadyPort™ user's manual.
For the Apical to Basolateral (A→B) permeability, 80 μL of test compound (3 μM) co-dosed with LY (Lucifer Yellow) (100 μM) in HBSS (Hank's Balanced Salt Solution) assay buffer was added to the donor side (A) while 250 μL of HBSS buffer was added to the receiver side (B). For the Basolateral to Apical (B→A) permeability, 255 μL of test compound (3 μM) in HBSS assay buffer was added to the donor side (B) while 75 μL of HBSS buffer containing LY (100 μM) was added to the receiver side (A).
The plate was placed in an incubator set at 37 degrees C. After 10 minutes of pre-warming, 5 μL aliquot was taken from donor compartment and set aside as the dosing solution. The MDCK-MDR1 incubation plate was placed back into the incubator for 2 hours of incubation at 37 degrees C. After 2 hours of incubation, 25 μL and 5 μL aliquots were removed from the receiver and donor sides, respectively. To the 5 μL aliquots taken from the donor sides (before and after a 2-hour incubation) were diluted with 20 μL of the HBSS buffer. All samples were mixed with 150 μL with acetonitrile containing internal standard (IS) and 200 μL water, and analyzed by LC-MS/MS.
The apparent permeability (Papp) was calculated using the following formula: Papp=dQ/dt×1/A×C0 where: • dQ/dt: amount of translocated material over incubation time (nmol/s) • A: area of insert (0.14 cm^2 for PreadyPort™ MDR1-96) • C0: initial concentration of product applied in apical (A→B) or basal (B→A) compartment (nmol/mL)
The efflux ratio (ER) was measured by dividing the Papp (basolateral to apical direction) by Papp (apical to basolateral direction). It is a general measure of the involvement of active processes. An ER>2 is considered positive for active transport.
Percent recovery was measured using the following equation:
[formula] where: • VR: Volume of the receiver compartment (mL) • VD: Volume of the donor compartment (mL) • CN: Concentration of dosing solution (μM) collected after 10 minutes of incubation • CR^final: Receiver concentration at the end of the incubation (μM) • CD^final: Donor concentration at the end of the incubation (μM)
The data reported in Table 3 were obtained according to the MDCK-MDR1 permeability assay described above.

[2] = Hepatocytes stability assay (human hepatocytes); details: both sexes, human, cryopreserved hepatocytes, cryopreserved human hepatocytes (pool of 50 mixed gender); 1 μM test compound; 1×10^6 cell/mL; 37 degrees C; read-out: CLint (μL/min/million cells)
Procedure: (§1) In vitro metabolic stability was assessed using cryopreserved hepatocytes from male Sprague Dawley rats and a pool of 50 mixed gender humans (BioIVT, Baltimore, MD). The incubation mixtures were prepared by mixing 250 μL of pre-warmed KHB (Krebs-Henseleit buffer) containing 2×10^6 cell/mL of hepatocytes with 250 μL of pre-warmed KHB buffer containing 2 μM of test compounds in a 48-well plate, giving a final concentration of 1 μM test compound (0.1% DMSO) and 1×10^6 cell/mL of hepatocytes. The reaction mixture was incubated at 37 degrees C. A 50 μL aliquot of incubation mixture was taken at time points (0, 15, 30, 60, 120 and 240 minutes) and transferred into a 96-well plate containing 300 μL ice-cold acetonitrile (containing 30 ng/mL of labetalol and 10 ng/mL of Naltrexone-d3 as internal standards) and immediately placed in ice to terminate the reaction. Samples were centrifuged, and supernatants were transferred into 96-well plates for liquid chromatography with tandem mass spectrometry (LC-MS/MS) analysis to monitor the depletion of the test compound.
(§2) Data was calculated as percent remaining by assuming zero-minute time point peak area ratio (analyte/IS) as 100% and dividing remaining time point peak area ratios by zero-minute time point peak area ratio. Data were fitted to a first-order decay model to determine half-life. From a plot of log (ln) peak area against time, the slope of the line was determined. Subsequently, half-life (T1/2) and intrinsic clearance (CLint) were calculated using the equations below: Elimination rate constant (k)=(−slope) Half-life (T1/2) min=0.693/k Intrinsic Clearance (CLint) (mL/min/million cells)=(V×0.693)/T1/2 V=incubation volume mL/number of cells The in vitro T1/2 was converted to in vitro intrinsic clearance (CLint,hep) in units of mL/min/kg using the formula shown below:
(§3) [formula] The in vitro intrinsic clearance (CLint,hep) was scaled to in vivo hepatic clearance (CL,hep) using the following equation which was adapted from a well-stirred model.
(§4) [formula] where Q is the liver blood flow and fu is the fraction unbound (assumed to be unity in this case). All parameters used in the calculation are shown below (Table 4).
(§5) The extraction ratio (ER) was calculated by dividing the hepatic clearance of a compound to the liver blood flow. The data reported in Table 5 were obtained according to the human hepatocytes stability assay described above.

[3] = test system: human hepatocytes; test: Hepatocytes stability assay (human hepatocytes); details: human hepatocytes; scaled hepatic clearance divided by liver blood flow (well-stirred model, fu assumed unity)
Procedure: as §1, §2, §3, §4, §5

| SMILES | efflux ratio at 2 h, 3 μM [1] | Papp A→B at 2 h, 3 μM [1] [×10⁻⁶ cm/s] | hepatocyte CLint at 1 μM [2] [µL/min/1e6 cells] | Extraction Ratio (ER) [3] |
| --- | --- | --- | --- | --- |
| CS(=O)(=O)N[C@H]1CCCN2C(=O)COc3ccc(C#N)cc3[C@H]3CC[C@H](CC3)OCC12 (stereo in doubt) [Compound 46] | 81 | 0.18 | 2.8 | 0.29 |
| CS(=O)(=O)N[C@H]1CCCN2C(=O)COc3cc(C#N)ccc3[C@H]3CC[C@H](CC3)OCC12 (stereo in doubt) [Compound 47] | > 100 | 0.19 | 4.3 | 0.39 |
| O=C1COc2ccccc2[C@H]2CC[C@H](CC2)OCC2[C@@H](NS(=O)(=O)CC3CC3)CCCN12 (stereo in doubt) [Compound 48] | 60 | 0.56 | 41 | 0.86 |
| Cc1cccc2c1OCCN1CCC[C@H](NS(C)(=O)=O)C1CO[C@H]1CC[C@@H]2CC1 (stereo in doubt) [Compound 49] | 0.73 | 8.6 | 58 | 0.90 |
| Cc1ccc2c(c1)OCCN1CCC[C@H](NS(C)(=O)=O)C1CO[C@H]1CC[C@@H]2CC1 (stereo in doubt) [Compound 50] | 0.76 | 9.6 | 61 | 0.90 |
| O=S(=O)(N[C@H]1CCCN2CCOc3ccccc3[C@H]3CC[C@H](CC3)OCC12)C1CC1 (stereo in doubt) [Compound 51] | 1.1 | 7.8 | 42 | 0.86 |
| CC(C)S(=O)(=O)N[C@H]1CCCN2CCOc3ccccc3[C@H]3CC[C@H](CC3)OCC12 (stereo in doubt) [Compound 52] | 2.4 | 3.9 | 59 | 0.90 |
| CCS(=O)(=O)N[C@H]1CCCN2CCOc3ccccc3[C@H]3CC[C@H](CC3)OCC12 (stereo in doubt) [Compound 53] | 1.8 | 5.6 | 58 | 0.90 |
| Cc1ccc2c(c1)[C@H]1CC[C@H](CC1)OCC1[C@@H](NS(C)(=O)=O)CCCN1CCO2 (stereo in doubt) [Compound 54] | 2 | 5.2 | 38 | 0.85 |
| O=S(=O)(CC1CCC1)N[C@H]1CCCN2CCOc3ccccc3[C@H]3CC[C@H](CC3)OCC12 (stereo in doubt) [Compound 55] | 31 | 0.23 | 69 | 0.91 |
| CC(C)(C)S(=O)(=O)N[C@H]1CCCN2CCOc3ccccc3[C@H]3CC[C@H](CC3)OCC12 (stereo in doubt) [Compound 56] | 3.3 | 1.7 | 69 | 0.91 |
| O=S(=O)(N[C@H]1CCCN2CCOc3ccccc3[C@H]3CC[C@H](CC3)OCC12)C1CCC1 (stereo in doubt) [Compound 57] | 6 | 1.7 | 65 | 0.91 |
| CC1(S(=O)(=O)N[C@H]2CCCN3CCOc4ccccc4[C@H]4CC[C@H](CC4)OCC23)CC1 (stereo in doubt) [Compound 58] | 7.5 | 1.4 | 55 | 0.89 |
| O=S(=O)(CC1CC1)N[C@H]1CCCN2CCOc3ccccc3[C@H]3CC[C@H](CC3)OCC12 (stereo in doubt) [Compound 59] | 5.4 | 1.67 | 62 | 0.90 |
| Cc1ccnc2c1[C@H]1CC[C@H](CC1)OCC1[C@@H](NS(=O)(=O)C3CC3)CCCN1C(=O)CO2 (stereo in doubt) [Compound 62] | > 100 | 0.092 | 21 | 0.76 |
| O=S(=O)(N[C@H]1CCCN2CCOc3ncccc3[C@H]3CC[C@H](CC3)OCC12)C1CC1 (stereo in doubt) [Compound 63] | 1.4 | 7.5 | 44 | 0.87 |
| CC(C)S(=O)(=O)N[C@H]1CCCN2CCOc3ncccc3[C@H]3CC[C@H](CC3)OCC12 (stereo in doubt) [Compound 64] | 1.2 | 12 | 46 | 0.87 |
| O=C1COc2nnccc2[C@H]2CC[C@H](CC2)OCC2[C@@H](NS(=O)(=O)C3CC3)CCCN12 (stereo in doubt) [Compound 67] | 63 | < 0.036 | 2.5 | 0.27 |
| Cc1ncnc2c1[C@H]1CC[C@H](CC1)OCC1[C@@H](NS(=O)(=O)C(C)C)CCCN1C(=O)CO2 (stereo in doubt) [Compound 69] | > 100 | < 0.041 | 3.4 | 0.34 |
| Cc1cccc2c1[C@H]1CC[C@H](CC1)OCC1[C@@H](NS(=O)(=O)C3CC3)CCN1C(=O)CO2 (stereo in doubt) [Compound 70] | 4.2 | 3.7 | 45 | 0.87 |
| O=C1COc2cccc(F)c2[C@H]2CC[C@H](CC2)OCC2[C@@H](NS(=O)(=O)C3CC3)CCCN12 (stereo in doubt) [Compound 74] | 41 | 0.62 | 15 | 0.69 |
| Cc1c(Cl)ccc2c1[C@H]1CC[C@H](CC1)OCC1[C@@H](NS(=O)(=O)C3CC3)CCCN1C(=O)CO2 (stereo in doubt) [Compound 75] | 65 | 0.3 | 11 | 0.61 |
| Cc1ccc2c(c1C)[C@H]1CC[C@H](CC1)OCC1[C@@H](NS(=O)(=O)C(C)C)CCCN1C(=O)CO2 (stereo in doubt) [Compound 76] | 28 | 0.57 | 9.8 | 0.59 |
